In ChEMBL document CHEMBL1201862, “PubChem BioAssay data set” (2004):
The source made the active and inactive calls.

Key:
[1] = system: INS1; experiment: beta cell apoptosis inhibitors, cytokine rescue, dose response, luminescence, retest (AID 449756); assay type: functional, cell-based; details: Rattus norvegicus;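 also: cell death triggered by IL-1 beta plus TNF-alpha plus IFN-gamma mixture; protective hits raise ATP signal compared with cytokine alone wells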
[2] = target: Opioid receptors; mu & delta (Homo sapiens, UniProt P41143+P35372); experiment: agonists of MOR-DOR heterodimerization, dose response, cell-based, luminescence (AID 588407); assay type: functional
[3] = system: HEK293; experiment: optical interference in Abeta FP readout, dose response, artefact control for IDE activator project, biochemical, fluorescence polarization (AID 588442); assay type: functional, cell-based; details: Homo sapiens
[4] = system: HEK293; experiment: HEK cell cytotoxicity by LDH release, dose response, cytotoxicity control for IDE activator project, fluorescence, HEK cells (AID 588440); assay type: functional, cell-based; details: Homo sapiens;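 also: cytotoxicity by LDH release measuring loss of membrane integrity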
[5] = target: Delta-type opioid receptor (Homo sapiens, UniProt P41143); experiment: Counterscreen for agonists of heterodimerization of the mu 1 (OPRM1) and delta 1 (OPRD1) opioid receptors: Luminescence-based cell-based high throughput dose response assay to identify agonists of OPRD1 homodimerization. [Related pubchem assays (depositor defined):AID504326, AID504355, AID504692, AID504904, AID504905]; assay type: functional
[6] = target: 5-hydroxytryptamine receptor 5A (Homo sapiens, UniProt P47898); experiment: Counterscreen for agonists of OPRM1-OPRD1 heterodimerization: luminescence-based cell-based high throughput dose response assay to identify agonists of 5-hydroxytryptamine (serotonin) 5A receptor (HTR5A). [Related pubchem assays (depositor defined):AID504326, AID504355, AID504692, AID504904, AID504905]; assay type: functional
[7] = target: Mu-type opioid receptor (Homo sapiens, UniProt P35372); experiment: Counterscreen for agonists of heterodimerization of the mu 1 (OPRM1) and delta 1 (OPRD1) opioid receptors: Luminescence-based cell-based high throughput dose response assay to identify agonists of OPRM1 homodimerization.; assay type: functional;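 also: U2OS cells expressing OPRM1 and beta-arrestin as split beta-galactosidase partners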
[8] = target: T1, Protein RecA (Mycobacterium tuberculosis, UniProt P9WHJ3); experiment: Fluorescence Cell-Free Homogeneous Dose Retest to Identify Inhibitors of RecA-Intein Splicing Activity. [Related pubchem assays (depositor defined):AID2097, AID2223, AID489010, AID492950]; assay type: functional
T1 sequence (P9WHJ3 whole entry): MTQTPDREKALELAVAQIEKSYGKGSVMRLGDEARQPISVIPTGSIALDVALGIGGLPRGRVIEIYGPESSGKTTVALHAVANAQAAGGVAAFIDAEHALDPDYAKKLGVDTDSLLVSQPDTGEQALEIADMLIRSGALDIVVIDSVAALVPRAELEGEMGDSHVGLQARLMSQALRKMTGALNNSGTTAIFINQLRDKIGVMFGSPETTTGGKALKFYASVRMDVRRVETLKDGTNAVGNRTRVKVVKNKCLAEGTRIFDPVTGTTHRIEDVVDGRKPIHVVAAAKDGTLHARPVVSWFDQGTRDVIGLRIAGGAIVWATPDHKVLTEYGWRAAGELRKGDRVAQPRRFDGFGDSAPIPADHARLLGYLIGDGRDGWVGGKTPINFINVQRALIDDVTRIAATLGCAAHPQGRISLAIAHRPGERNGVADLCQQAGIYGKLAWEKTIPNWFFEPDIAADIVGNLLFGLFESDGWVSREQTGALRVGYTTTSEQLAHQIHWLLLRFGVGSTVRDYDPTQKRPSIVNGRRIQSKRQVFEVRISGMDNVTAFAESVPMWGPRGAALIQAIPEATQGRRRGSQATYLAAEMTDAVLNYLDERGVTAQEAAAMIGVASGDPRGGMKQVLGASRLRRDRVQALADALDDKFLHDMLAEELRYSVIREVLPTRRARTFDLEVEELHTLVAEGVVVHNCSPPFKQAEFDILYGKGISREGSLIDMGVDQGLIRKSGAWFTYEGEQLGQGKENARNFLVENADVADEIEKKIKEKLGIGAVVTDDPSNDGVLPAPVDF

[9] = target: T2, Replicative DNA helicase DnaB (Mycobacterium tuberculosis, UniProt P9WMR3); experiment: DnaB intein splicing inhibitors, dose response, biochemical, cell-free fluorescence (AID 449749); assay type: functional
T2 sequence (P9WMR3 whole entry): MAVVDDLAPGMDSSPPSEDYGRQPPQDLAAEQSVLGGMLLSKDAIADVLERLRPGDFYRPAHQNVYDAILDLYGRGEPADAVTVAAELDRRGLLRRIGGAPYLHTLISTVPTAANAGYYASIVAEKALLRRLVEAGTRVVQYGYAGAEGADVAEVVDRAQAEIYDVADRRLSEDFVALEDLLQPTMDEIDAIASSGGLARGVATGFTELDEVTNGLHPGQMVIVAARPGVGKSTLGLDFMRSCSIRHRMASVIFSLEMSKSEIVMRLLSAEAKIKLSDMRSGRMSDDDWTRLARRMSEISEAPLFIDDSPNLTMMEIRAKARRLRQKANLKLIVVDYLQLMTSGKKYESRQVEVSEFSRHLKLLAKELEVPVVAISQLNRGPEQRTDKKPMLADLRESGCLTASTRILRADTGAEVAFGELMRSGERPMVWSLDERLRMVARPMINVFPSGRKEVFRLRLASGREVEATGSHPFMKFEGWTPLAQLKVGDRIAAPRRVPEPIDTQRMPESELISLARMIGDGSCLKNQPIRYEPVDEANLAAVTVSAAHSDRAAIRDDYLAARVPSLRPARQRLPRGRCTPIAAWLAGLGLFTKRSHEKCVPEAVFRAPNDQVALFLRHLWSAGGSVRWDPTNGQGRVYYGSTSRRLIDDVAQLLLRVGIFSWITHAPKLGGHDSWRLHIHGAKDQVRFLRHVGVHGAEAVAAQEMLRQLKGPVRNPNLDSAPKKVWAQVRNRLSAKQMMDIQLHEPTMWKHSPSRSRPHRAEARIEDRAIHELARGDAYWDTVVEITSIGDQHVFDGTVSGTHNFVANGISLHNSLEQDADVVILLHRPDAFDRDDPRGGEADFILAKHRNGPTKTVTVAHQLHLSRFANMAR

[10] = system: HeLa; experiment: HeLa cell cytotoxicity, dose response, cytotoxicity control for MITF activator project, CellTiter-Glo luminescence, cherry-pick samples (AID 540259); assay type: functional, cell-based; details: Homo sapiens
[11] = NIH-3T3 fibroblast cytotoxicity, dose response, cytotoxicity control, cell-based, fluorescence, Alamar Blue, secondary assay (AID 2327); assay type: functional;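 also: NIH-3T3 mouse fibroblasts cultured with fluconazole at 8 µg/mL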
[12] = target: T3, Heat shock factor protein 1 (Mus musculus, UniProt P38532); experiment: HSF1 potentiators in luciferase reporter cells, confirmation, cell-based, NIH3T3, luminescence, dose retest (AID 435004); assay type: functional;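 also: stress induced by proteasome inhibitor MG132 added 30 min after compound; luciferase reporter driven by HSF1 response element in NIH3T3 cells; actives raise luminescence as potentiators of the MG132 stress response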
T3 sequence (P38532 whole entry): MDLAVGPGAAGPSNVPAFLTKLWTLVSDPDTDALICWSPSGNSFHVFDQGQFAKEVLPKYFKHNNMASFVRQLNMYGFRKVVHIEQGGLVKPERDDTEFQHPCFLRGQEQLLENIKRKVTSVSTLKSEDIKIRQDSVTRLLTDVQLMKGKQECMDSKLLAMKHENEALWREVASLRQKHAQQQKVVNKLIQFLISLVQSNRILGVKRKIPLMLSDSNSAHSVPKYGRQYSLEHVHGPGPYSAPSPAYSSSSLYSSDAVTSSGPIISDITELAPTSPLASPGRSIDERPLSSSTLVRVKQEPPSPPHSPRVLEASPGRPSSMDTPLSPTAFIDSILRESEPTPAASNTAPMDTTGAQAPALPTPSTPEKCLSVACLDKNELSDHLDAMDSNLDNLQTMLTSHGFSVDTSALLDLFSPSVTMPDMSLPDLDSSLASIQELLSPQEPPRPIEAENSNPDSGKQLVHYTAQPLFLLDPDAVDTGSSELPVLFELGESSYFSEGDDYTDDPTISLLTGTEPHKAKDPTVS

[13] = C. albicans growth with fluconazole, confirmation, fluorescence, retest (AID 2467); assay type: functional, cell-based
[14] = target: Serine/threonine-protein phosphatase (Candida dubliniensis (strain CD36 / CBS 7987 / NCPF 3949 / NRRLY-17841) (Yeast), UniProt B9W6M3); experiment: calcineurin pathway inhibitors in yeast reporter, dose response, S. cerevisiae, CDRE-lacZ, luminescence, secondary (AID 2388); assay type: functional, cell-based;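 also: yeast reporter cells carrying a calcineurin-responsive lacZ construct stimulated with calcium chloride; luminescent beta-galactosidase reporter signal in whole cells rather than isolated phosphatase activity; potency for inhibition where a drop in reporter signal means calcineurin blockade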
[15] = target: ATP-dependent molecular chaperone HSP82 (Candida albicans (strain WO-1) (Yeast), UniProt C4YTQ8); experiment: loss of DOC-induced GRE-beta-galactosidase reporter signal, dose response, Hsp90 inhibitor project, S. cerevisiae, luminescence (AID 2400); assay type: functional, cell-based;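 also: beta-galactosidase luminescence from glucocorticoid response element reporter as proxy for Hsp90 function; inhibitor potency where signal loss means Hsp90 inhibition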
[16] = system: HEK293; experiment: cells; details: Homo sapiens
[17] = target: Tumor necrosis factor (Homo sapiens, UniProt P01375); experiment: TNFa-triggered NF-kB activation inhibitors, SAR follow-up, cell-based, revised (AID 2337); assay type: functional
[18] = target: Nucleotide-binding oligomerization domain-containing protein 1 (Homo sapiens, UniProt Q9Y239); experiment: NOD1 signaling inhibitors, SAR follow-up, revised (AID 2333); assay type: functional
[19] = target: Intestinal-type alkaline phosphatase (Homo sapiens, UniProt P09923); experiment: inhibition of human intestinal alkaline phosphatase – biochemical, dose response (AID 488876); assay type: functional
[20] = target: Large T antigen (Simian virus 40, UniProt P03070); assay type: functional, Betapolyomavirus macacae;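 also: Confirmatory-stage PubChem screen for compounds that inhibit SV40 T antigen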
[21] = target: T4, Alkaline phosphatase, tissue-nonspecific isozyme (Homo sapiens, UniProt P05186); experiment: TNAP enzyme inhibition by screening hits, dose response, selectivity assay for mouse IAP inhibitor project, biochemical, human TNAP, uHTS hits (AID 488906); assay type: functional
T4 sequence (P05186 whole entry): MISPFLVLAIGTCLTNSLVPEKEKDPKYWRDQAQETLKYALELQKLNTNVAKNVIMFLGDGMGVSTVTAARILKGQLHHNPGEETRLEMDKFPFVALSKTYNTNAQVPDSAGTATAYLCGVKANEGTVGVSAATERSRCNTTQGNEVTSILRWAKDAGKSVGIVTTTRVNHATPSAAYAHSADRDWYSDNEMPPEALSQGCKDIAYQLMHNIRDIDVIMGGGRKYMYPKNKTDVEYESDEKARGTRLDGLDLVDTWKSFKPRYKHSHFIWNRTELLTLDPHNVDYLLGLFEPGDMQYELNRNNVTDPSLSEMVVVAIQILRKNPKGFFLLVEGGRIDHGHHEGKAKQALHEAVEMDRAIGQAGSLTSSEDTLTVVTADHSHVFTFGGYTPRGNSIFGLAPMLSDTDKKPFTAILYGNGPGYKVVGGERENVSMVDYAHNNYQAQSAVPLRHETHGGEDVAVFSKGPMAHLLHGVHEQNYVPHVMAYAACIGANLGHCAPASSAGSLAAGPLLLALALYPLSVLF

[22] = target: Intestinal-type alkaline phosphatase (Mus musculus, UniProt P24822); experiment: PubChem AID 488785; assay type: functional
[23] = target: T3, Heat shock factor protein 1; experiment: inhibition of MG132-induced HSE-luciferase signal, confirmation, cell-based, NIH3T3, luminescence, dose retest (AID 2382); assay type: functional;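 also: NIH3T3 fibroblasts with HSF1-driven luciferase reporter stressed by proteasome inhibitor MG132; luminescence from HSF1-driven luciferase expression after 8 hours of MG132 stress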
[24] = MC4R antagonists, dose response, counter-screen for LGR2 antagonist project, cell-based, plate reader, cherry pick (AID 743444); assay type: functional;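 also: transfected HEK 293 cells stimulated with alpha-MSH peptide; potency of inhibitors of the alpha-MSH evoked signal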
[25] = HEK293 cell cytotoxicity, dose response, cytotoxicity control, plate reader, cherry-picked samples (AID 743446); assay type: functional, cell-based
[26] = target: Luciferin 4-monooxygenase (Photuris pensylvanica, UniProt Q27757); experiment: firefly luciferase enzyme inhibitors, dose response, counter-screen for HSF-1 reporter inhibitor project, biochemical, Cell Titer Glo, luminescence, cherry-picks (AID 588847)
[27] = A549 cell cytotoxicity, dose response, cytotoxicity control, plate reader, cherry-pick, antagonist series (AID 743412); assay type: functional, cell-based
[28] = cytotoxicity in HEK-293T cells, dose response, cytotoxicity control for TCR NF-kB inhibitor project, luminescence, T-cell screen hits (AID 489026); assay type: functional, cell-based;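 also: cells exposed to compound about 14 hours before the viability readout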
[29] = LGR2 antagonists, dose response, cell-based, HEK293, CRE-luciferase reporter, cherry pick, set 2 (AID 743343); assay type: functional;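 also: transfected cells were stimulated with diluted bursicon conditioned medium after compound addition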
[30] = target: Keap1/Nrf2 (Homo sapiens, UniProt Q14145); experiment: Keap1-Nrf2 protein-protein interaction inhibitors, dose response, biochemical, fluorescence polarization, cherry-picked samples (AID 588683)

Clc1ccc(C(c2ccc(Cl)cc2)[n+]2ccn(CC(OCc3ccc(Cl)cc3Cl)c3ccc(Cl)cc3Cl)c2)cc1.[Cl-] (centres undefined) [CALMIDAZOLIUM CHLORIDE]
AC50 [1]: 2.56 µM (active)
EC50 [2]: > 3.426 µM
EC50 [3]: > 54.7 µM (inactive)
IC50 [4]: 2.01 µM (active)

c1ccc(C2[C@H]3CN(Cc4cccnc4)[C@H](c4ccccc4)C34CC2(c2cccnc2)C4)cc1 (some centres undefined)
EC50 [5]: 3.21 µM (active)
EC50 [2]: > 3.424 µM
EC50 [6]: > 92.5 µM (inactive)
EC50 [7]: > 92.5 µM (inactive)
EC50 [8]: 16.7 µM (active)
AC50 [9]: 3.72 µM (active)

CCc1ccc(C(=O)NC2CCCCC2)s1
AC50 [10]: 87.6 µM (active)

CCC(C)n1cnc2c(c1=O)c1nc3ccccc3nc1n2Cc1ccc(OC)cc1 (centres undefined)
EC50 [11]: 47.7 µM (active)
EC50 [12]: > 260 µM (inactive)
EC50 [13]: 0.356 µM (active)
EC50 [14]: > 180 µM (inactive)
EC50 [15]: 14.7 µM (active)

COc1ccc(COc2ccc3ccc(=O)oc3c2)cc1
AC50 [10]: 93.8 µM (active)

COc1ccc(N2CCN(S(=O)(=O)c3ccc4c(c3)CC(C)N4C(=O)C3CC3)CC2)cc1 (centres undefined)
IC50 [16]: > 20 µM (inactive)
IC50 [17]: 3.85 µM (active)
IC50 [18]: 0.506 µM (active)

Oc1cc(O)c2c(c1)O[C@H](c1ccc(O)c(O)c1)[C@@H](O)C2
IC50 [19]: > 100 µM (inactive)
IC50 [20]: 11.4 µM (active)
IC50 [21]: 37.1 µM (active)
IC50 [22]: 15.5 µM (active)
EC50 [8]: 4.11 µM (active)
AC50 [9]: 22.2 µM (active)

CC1CCCN(c2ncnc3c2cnn3-c2ccc(Cl)cc2)C1 (centres undefined)
EC50 [23]: < 0.16 µM (active)
AC50 [24]: 0.155 µM (active)
AC50 [25]: > 52 µM (inactive)
AC50 [26]: 1.34 µM (active)
AC50 [27]: > 52 µM (inactive)
IC50 [28]: > 80 µM (inactive)
AC50 [29]: < 0.068 µM (active)

Cc1cc[n+](-c2[n-]c(=O)sc2C=NNC(=S)Nc2ccccc2)cc1C
AC50 [30]: > 52 µM (inactive)
